Data on one compound can be found in patent publication US5563176A (priority 1994, dated 1996).

In one assay the test system is HL60 cells (myeloid). The assay can be described thus: cells. Type of assay: cell-based, human. The note with it: Homo sapiens, HL-60, 2 h.
The test system of a further assay is 242, melanoma. The assay can be described thus: inhibition of thymidine incorporation after two hour exposure, 242. Type of assay: cell-based. As to conditions: 2 h; Table 1; 242, two hour exposure. The method, then:
(§1) To assess cytotoxic effects, various concentrations of illudins were added to cultures of cells for 48 hours, then cell growth/viability was determined by trypan blue exclusion. As an alternative to 48 hour continuous exposure studies, cells were plated in liquid culture in 96 well plates, exposed to various concentrations of illudins for 2 hours, pulsed with [^3 H]-thymidine for one to two hours and harvested onto glass filters. The filter papers were added to vials containing scintillation fluid and residual radioactivity determined in a beta (scintillation) counter.
(§2) two hour exposure to the toxins (N - 3).
A general note: Uptake of a labelled nucleoside into DNA is a usual measure of proliferation.

The next assay concerns 547, ovarian. Kind of assay: inhibition of thymidine incorporation after two hour exposure, 547. The class given is cell-based. As to conditions: 2 h; Table 1; 547, two hour exposure. As for the experimental part: as §1, §2
In assay [1] the test system is MDA-231 3-1 (gp170+) cells. Kind of assay: sensitivity of mdr lines, MDA-231 3-1. As to conditions: Homo sapiens, MDA-MB-231. Type of assay: cell-based.
Assay [2] has as its system MCF7 ADR (GSH-transferase) cells. Kind of assay: cells. The class given is cell-based. As to conditions: Homo sapiens, NCI/ADR-RES, read-out: Sensitivity of mdr lines.
The test system of a further assay is KB parent cells. The assay can be described thus: sensitivity of mdr lines, KB parent. The class given is cell-based.
For another assay, the system named is L1210 parent cells. The assay can be described thus: sensitivity of mdr lines, L1210 parent. Type of assay: cell-based. As to conditions: Mus musculus.
For a further assay, the system named is 8392 cells. The assay can be described thus: cells. As to conditions: 48 h, read-out: 48 hour IC50. The class given is cell-based.
The test system of assay [3] is human lung adenocarcinoma MV522. Kind of assay: animal or person. The note with it: MV522, ip, read-out: life span.
A further assay concerns L1210. Kind of assay: zone of inhibition / colony formation, L1210.

Where two headings read alike, the source gives them in different places. Where only a bound is given, the exact number is not on record here.

Regarding `CC1=C2C(=O)C(C)(C)C=C2C(=O)[C@](C)(O)C12CC2` [Dehydroilludin M], the IC50 in the assay on HL60 cells (myeloid) is 246 ± 19 nM; in the assay on HL60 cells (myeloid) (read-out: Two hour IC50) it was 377 ± 81 nM; with 242, melanoma, above 38000 nM; with 547, ovarian, above 38000 nM; in assay [1], 58 ± 11 nM; in assay [2] it was 68 ± 15 nM. In addition, the IC50 was 125 ± 14 nM in the assay on KB parent cells, 62 ± 8 nM with L1210 parent cells and 269 ± 100 nM in the assay with 8392 cells. Also, the response vs control in vivo at 30 mg/kg in assay [3] was found to be 163 ± 6%. The “Zone Size” value with L1210 (L1210, dilution 1/25) turned out to be 400; with L1210 (L1210, dilution 1/125), 200; in the assay with L1210 (L1210, dilution 1/125 (repeat)), 300; in the assay with L1210 (L1210, dilution 1/625), 100.
